Data taken from article PMC9792986, “Synthesis and characterization of semisynthetic analogs of the antifungal occidiofungin” (Frontiers in Microbiology, 2022).
Several values for one entry are separate records, joined by “and”; a condition that tells them apart may be missing. Equal entries are not always repeated. Starred links: 1 amine or outer side, 2 acyl side, 3 side chain; linkers in the order of their positions; H or OH if unused. Non-standard residues stand in square brackets, D forms with d. Residues, ends and D or L forms follow the SMILES beside them. X3 = O=C([C@@H](N[*:1])C(O)c1ccc(O)cc1)[*:2]; X2 = CCCCCCCCCCCCNCCC(CC(=O)[*:2])N[*:1]; X1 = NC(=O)C(O)[C@H](N[*:1])C(=O)[*:2]; Dab = NCC[C@H](N)C(=O)O

Assays:
[1] = tested on: Saccharomyces cerevisiae DGY6 haploid BY4741; assay: Minimum inhibitory concentration assay; type: cell-based; conditions: for fold of native compound's concentration at which completely inactive: against S. cerevisiae; for MIC: S. cerevisiae DGY6 haploid BY4741, modified CLSI M27-A3, 24 h incubation, duplicate
Description: (§1) MIC assays were performed in duplicate following a modified version of the CLSI M27-A3 protocol as previously described ([Ravichandran et al., 2019]).

[2] = tested on: S. cerevisiae, Candida albicans, and Candida glabrata; assay: MIC comparison with native occidiofungin over the yeasts tested; type: cell-based; conditions: against the Candida species tested and S. cerevisiae strain tested
Description: as §1

[3] = tested on: Saccharomyces cerevisiae cells; assay: Fluorescent microscopy and competitive binding (uptake) assay with alkyne-occidiofungin; type: cell-based; conditions: 5 min pretreatment at 1X MIC of native occidiofungin, then 1X MIC alkyne-OCF 30 min; fluorescence microscopy
Description: After 30 min, the cells were fixed then permeabilized. Click reaction was performed with azide-derivatized Alexa Fluor 488 as per the kit-supplied protocol (Click-iT EdU imaging kit; Thermo Fisher Scientific). The cells were suspended in […]® Antifade Mounting Medium and visualized with a Leica DM 6B microscope. […] The cells were then fixed, permeabilized and Click reaction was performed as previously described ([Ravichandran et al., 2019]).

[4] = HPLC percentage of water at elution (polarity); type: physicochemical; conditions: chromatographic, analytical C18 (Agilent ZORBAX ODS, 5 μm, 4.6 × 250 mm); 30-min gradient from 90 to 20% water/ACN, 0.1% TFA; UV 220 nm; used as measure of polarity
Description: A two-step procedure of reductive amination was used to introduce a primary or secondary amine onto the aldehyde analog. The first step of reaction involves the formation of an intermediate carbinol amine, which is then dehydrated and protonated to form an iminium ion. Subsequent reduction of this iminium ion with sodium borohydride produces an alkylated amine product. The aldehyde analog of occidiofungin was dissolved in DMSO at a concentration of 10 mg/ml. Three amines (undecylamine, dodecylamine, and DL-dihydrosphingosine) were used for reductive amination. Aldehyde analog (10 μl of DMSO stock solution; 100 μg) was mixed with 10-fold excess of an amino lipid (molar ratio) in 400 μl pure methanol. The sample was then incubated at room temperature for at least 16 h. Solid sodium borohydride (6 mg) was weighted on an analytical balance (Adventurer™ Pro AV114C, Ohaus Corporation, USA) and was directly transferred into the reaction mixture, mixed well, and was incubated at room temperature for 5 min. The reaction mixture was diluted to 1 ml with 50% ACN 0.1% TFA and was separated by HPLC using a 30-min gradient from 90 to 20% water/ACN on the analytical C18 column. HPLC solvents contained 0.1% TFA. Products that eluted between 50% and 30% water were collected and analyzed by electrospray ionization mass spectrometry (ESI-MS) on a ThermoFisher DecaXP ion trap mass spectrometer. The yield of each HPLC sample was quantified by comparing the peak area of each analog to the peak area of a 100 μg standard of occidiofungin. Electrospray ionization mass spectrometry (ESI-MS) experiments were performed using a Thermo Scientific Q Exactive Focus. Sample was loop injected (10 μl) and acetonitrile with 0.1% formic acid was used as a mobile phase at a flow rate of 600 μl/min. The Q Exactive Focus HESI source was operated in full MS in positive mode. The mass resolution was tuned to 70,000 FWHM at m/z 200. The spray voltage was set to 3.5 kV, and the sheath gas and auxiliary gas flow rates were set to 40 and 10 arbitrary units, respectively. The transfer capillary temperature was held at 300°C and the S-Lens RF level was set at 50 v. Exactive Series 2.11 /Xcalibur 4.2.47 software was used for data acquisition and processing. The alkyne occidiofungin (alkyne-OCF) used for fluorescent microscopy was synthesized as previously described ([Ravichandran et al., 2019]).

[5] = tested on: Candida albicans ATCC 3147; assay: Minimum inhibitory concentration assay; type: cell-based; conditions: C. albicans ATCC 3147; modified CLSI M27-A3; 24 h incubation; duplicate
Description: as §1

[6] = tested on: Candida glabrata ATCC 2001; assay: Minimum inhibitory concentration assay; type: cell-based; conditions: C. glabrata ATCC 2001; modified CLSI M27-A3; 24 h incubation; duplicate
Description: as §1

G-actin = assay: Pyrene labeled actin polymerization assay; type: biochemical; conditions: 5 μM compound; duplicate
Description: (§2) Actin polymerization and depolymerization assays were performed using the Actin polymerization biochem kit (# BK003; Cytoskeleton, Inc. Denver, CO) following the manufacturer’s instructions with some modifications. Briefly, for the polymerization assay, G-actin stock solution was made at 0.2 mg/ml instead of 0.4 mg/ml. For the depolymerization assay, F-actin stock solution was diluted nine-fold instead of five-fold. Test compounds including phalloidin, DL-dihydrosphingosine analog, and native occidiofungin were tested at a final concentration of 5 μM. The experiments were done in duplicate.

F-actin = assay: Pyrene labeled actin depolymerization assay; type: biochemical; conditions: 5 μM compound; duplicate
Description: as §2

[7] = target: T1, F-actin (rabbit skeletal muscle filamentous actin) (Oryctolagus cuniculus, UniProt P68135); set-up: method as in Ravichandran et al., 2019; conditions: co-sedimentation, published previously, ref Ravichandran et al., 2019, cited from earlier work; for Kd: read-out: Kd value for binding to F-actin
T1 construct: Purified rabbit skeletal muscle filamentous actin (AKF99); purchased Cytoskeleton Inc. (Denver, CO) AKF99; host or cells: rabbit skeletal muscle (tissue-purified)

Compound | fold of native compound's concentration at which completely inactive [1] [fold] | fold of native occidiofungin's inhibitory concentration at which inactive [2] [fold] | effect of pretreatment on internalization of alkyne-OCF [3] | percentage of water for the HPLC retention time [4] [%] | MIC [5] [µg/mL] | MIC [1] [µg/mL] | MIC [6] [µg/mL] | effect on actin polymerization (in words) (G-actin) | effect on actin depolymerization (in words) (F-actin) | saturation of binding ratio (ligand:actin monomer) [7] | Kd [7]
CCCCCCCCCCCCNCCC1CC(=O)N[C@@H](CO)C(=O)N[C@@H](C(O)c2ccc(O)cc2)C(=O)N[C@@H](CCN)C(=O)NCC(=O)N[C@@H](CC(N)=O)C(=O)N[C@@H](CO)C(=O)N[C@@H](C(O)C(N)=O)C(=O)N1 (stereo partly drawn) [Dodecylamine] (cyclo([X1][X2]S[X3][Dab]GNS)) | 64 | 64 | did not interfere with the internalization of the alkyne-OCF | 47 | – | – | – | – | – | – | –
DL-dihydrosphingosine | – | – | – | 33 | 16 | 2 | 8 | did not interfere with polymerization or depolymerization | did not interfere with polymerization or depolymerization | – | –
Undecylamine | 64 | 64 | – | 50 | >32 | >4 | >8 | – | – | – | –
occidiofungin [Native occidiofungin, reference compound] | – | – | prevented internalization of alkyne-OCF | 48 | 0.5 | 0.0625 | 0.5 | did not interfere with polymerization or depolymerization | did not interfere with polymerization or depolymerization | more than 20 molecules of occidiofungin to one actin monomer | 1050 nM
phalloidin | – | – | – | – | – | – | – | – | completely blocked the depolymerization of F-actin | – | ~8 nM and 8 nM
